Measurements taken from article PMC9258070, “Establishment and evaluation of glucose-modified nanocomposite liposomes for the treatment of cerebral malaria” (Journal of Nanobiotechnology, 2022).
Where a name gives a salt, the structure may show the parent alone.

Tests used:
[1] = Pharmacokinetic study in plasma (LC-MS); details: C57BL/6, mouse
Method: (§1) The C57BL/6 mouse cerebral malaria model was established according to the method of “In vivo antimalarial experiment”. The model mice were randomly divided into the intranasal administration group (na-ATS/TMP@lipoBX) and tail vein injection group (iv-ATS/TMP@lipoBX). The dosage of each administration group was artesunate (ATS) 15.6 mg/kg and tetramethylpyrazine hydrochloride (TMP) 20.8 mg/kg.
Blood samples were collected at 5 min, 10 min, 15 min, 30 min, 45 min, 1 h, 2 h, 4 h, 8 h, 12 h and 24 h after administration. These samples were immediately placed in a tube containing heparin sodium (1000 U/mL). Plasma samples were obtained after centrifugation at 4000 rpm for 10 min and an esterase inhibitor was added to the samples. Subsequently, methanol was added to the plasma in the ratio of 1:2 (plasma-methanol) and centrifuged at 14,000 rpm for 5 min to obtain liquid supernatant for quantitative analysis by LC–MS.
(§2) LC conditions were as follows: column: Waters UPLC BEH C18 column (1.7 μm, 2.1 mm × 50 mm); mobile phase: water (0.1% formic acid and 5 mM ammonium formate)-acetonitrile (85:15, v/v), flow rate: 0.3 ml/min; column temperature: 35 ℃. Mass spectrum conditions were as follows: electric spray ion source (ESI); multiple response monitoring (MRM) mode; positive ion scanning mode; air curtain pressure (N2) was 40 psi, impact air pressure (N2) was 9 psi, atomization gas pressure (N2) was 55 psi, auxiliary gas pressure (N2) was 55 psi; spray voltage was 5500 V; atomization temperature was 550 ℃.

[2] = Brain biodistribution study (LC-MS); details: C57BL/6, mouse
Method: as §1
Mice were euthanized and the brains were dissected. The brain samples were homogenized by adding 4 times their weight of physiological saline to prepare a tissue homogenate. The brain homogenates were processed according to the processing method for the plasma sample, and LC–MS quantitative analysis was carried out.
as §2

[3] = Solubility of the conjugate (description); format: physicochemical

Compound	bioavailability ([1]; in vivo) [%]	Tmax ([2]; brain, inhaled or intranasal) [min]	Tmax ([2]; brain, iv) [min]	bioavailability ([2]; brain, other: intranasal) [%]	also measured
C[C@H]1[C@H](OC(=O)CCC(=O)O)O[C@@H]2O[C@@]3(C)CC[C@H]4[C@H](C)CC[C@@H]1[C@@]24OO3 [ATS, artesunate]	~91	210 ± 60	495 ± 311	~415	Tmax ([1]; plasma, inhaled or intranasal): 144 ± 225 min; Tmax ([1]; plasma, iv): 17.5 ± 18.5 min
C[C@H]1[C@@H](O)O[C@@H]2O[C@@]3(C)CC[C@H]4[C@H](C)CC[C@@H]1[C@@]24OO3 [DHA, dihydroartemisinin]		23.8 ± 17	7.5 ± 2.88	~449	
Cc1nc(C)c(C)nc1C [TMP, tetramethylpyrazine hydrochloride]	~97				Tmax ([1]; in vivo, inhaled or intranasal): 4.98 min; Tmax ([1]; in vivo, iv): 6.24 ± 2.52 min; bioavailability ([2]; in vivo): ~183%; Tmax ([2]; in vivo, inhaled or intranasal): 4.98 min; Tmax ([2]; in vivo, iv): 4.98 min
CC(C)CCCC(C)C1CCC2C3CC=C4CC(OC(=O)CCCCCCCCCCOc5ccc(OC6OC(CO)C(O)C(O)C6O)cc5)CCC4(C)C3CCC12C (stereo not shown) [cholesterol-undecanoate-glucose conjugate]					solubility [3]: soluble in ethanol and tetrahydrofuran
